According to article PMC8785525 (Malaria Journal, 2022):
In brackets after ≈: the same amount, converted by molar mass. Like-named read-outs stand apart in the source and are kept apart here.

Legend:
P. falciparum 3D7 = experiment: In vitro anti-malarial activity, SYBR-Green I fluorescence assay, strain 3D7; format: cell-based; conditions: Plasmodium falciparum, 3D7, Erythrocyte, 72 h, read-out: Inhibition IC50 mean ± SD
Procedure: (§1) In the in vitro anti-malarial bioassay, strains of P. falciparum (chloroquine sensitive 3D7 and multidrug resistant Dd2) were kept in continuous culture in human erythrocytes in RPMI 1640 medium supplemented with 0.5% Albumax I/II and […] hypoxanthine according to the method previously described by Trager and Jensen. Synchronization of parasites was conducted using sorbitol treatment and parasitaemia was microscopically determined in Giemsa-stained smears.
(§2) In vitro anti-malarial activity assay was performed as previously described. Chloroquine and artemisinin were used as standard anti-malarial drugs, and equivalent free DQ used as a control and dissolved in dimethylsulfoxide (DMSO). Liposomes were diluted into a series of 10 µl different DQ concentrations for the in vitro assay. Each sample (10 µl) was mixed with 90 µl culture medium containing P. falciparum (0.5% parasitaemia and 2% haematocrit) and placed in 96-well microplates, which were incubated for 72 h with 5% CO2 at 37 °C. Lysis buffer (100 µl) containing 0.2 µl SYBR- Green I was then added to each well of the plate and incubated for additional 1.5 h at 37 °C. Fluorescence signal was detected at 488 nm (excitation) and 520 nm (emission) in a microplate reader (Synerfy H1, Bio Tek, USA). The intensity of fluorescence generated by the binding of SYBR-Green I to Plasmodium DNA is relative to the growth of parasites. IC50 values were derived from dose–response curves evaluated with software GraphPad.

P. falciparum Dd2 = experiment: In vitro anti-malarial activity, SYBR-Green I fluorescence assay, strain Dd2; format: cell-based; conditions: Plasmodium falciparum, DD2, Erythrocyte, 72 h, read-out: Inhibition IC50 mean ± SD
Procedure: as §1, §2

[1] = parameters: method as in PMID 21914160; conditions: cited from earlier work
Plasmodium parasites = tested on: Plasmodium parasites; parameters: method as in PMID 28491482; conditions: cited from earlier work
[2] = infected human red blood cells, DQ concentration for liposomes

Work on `C[C@@H]1CC[C@H]2[C@@H](C)C(=O)O[C@@H]3O[C@@]4(C)CC[C@@H]1[C@]32OO4` [Artemisinin] yielded an IC50 (P. falciparum 3D7; [2]) of 16.4 ± 5.8 nM and an IC50 (P. falciparum Dd2; [2]) of 18.5 ± 0.5 nM.
`CCN(CC)CCCC(C)Nc1ccnc2cc(Cl)ccc12` (stereo not drawn) [Chloroquine] gave an IC50 (P. falciparum 3D7) of 23.75 ± 0.06 nM and an IC50 (P. falciparum Dd2) of 185 ± 16.2 nM.
For `C[C@H]1[C@@H](O)O[C@@H]2O[C@@]3(C)CC[C@H]4[C@H](C)CC[C@@H]1[C@@]24OO3` [DHA, dihydro-artemisinin], the half-life ([1]; DHA formed from intravenous artesunate) is listed as 30 to 60 min.
For `CCCCCCCCCCOc1cc2c(O)c(C(=O)OCC)cnc2cc1OCC` [DQ in DMSO, Decoquinate], the IC50 (P. falciparum 3D7; [2]) is given as 1.63 ± 0.13 nM, the IC50 (P. falciparum Dd2; [2]) is given as 1.57 ± 0.49 nM and the “minimum inhibitory concentration (MIC)” value (Plasmodium parasites) is given as 5.12 ng/mL (≈ 0.0123 µM).
In the case of `C[C@H]1[C@H](OC(=O)CCC(=O)O)O[C@@H]2O[C@@]3(C)CC[C@H]4[C@H](C)CC[C@@H]1[C@@]24OO3` [artesunate], the half-life ([1]; intravenous artesunate, parent AS) is given as “less than 15 min”.
